Data reported in publication PMC6858373 (Scientific Reports, 2019).
Entries after “also recorded” stand apart in the source; their conditions may differ. Where two headings read alike, the source gives them in different places.

How the values were obtained:
[1] = biological target: T1, FGF14:Nav1.6 C-tail complex (Homo sapiens, UniProt Q92915+Q9UQD0); test: Split-luciferase complementation assay (LCA) in Clone V double stable HEK293 cells; format: cell-based; details: for Split Luciferase Assay Z-score Set 1 / Split Luciferase Assay % Lum Set 1: biological replicate Set 1; for Split Luciferase Assay Z-score Set 1 / Split Luciferase Assay Z-score Set 2: normalized to on-plate 0.3% DMSO controls; for Split Luciferase Assay % Lum Set 1 / Split Luciferase Assay %Lum Set 2: normalized to on-plate 0.3% DMSO controls (n=16 per plate); for Split Luciferase Assay Z-score Set 2 / Split Luciferase Assay %Lum Set 2: biological replicate Set 2; for Split Luciferase Assay %Lum Avg: average of Set 1 and Set 2, normalized to 0.3% DMSO controls
T1 construct: polymerase chain reaction (PCR) amplification of the FGF14 open reading frame (nt 1–855); C-terminal fragment of Nav1.6 (amino acids 1763–1976) fused with CD4ΔC-tail (amino acids 1–395); expressed in transfected cells
T1 sequence (Q92915 1-252 isoform Q92915-2): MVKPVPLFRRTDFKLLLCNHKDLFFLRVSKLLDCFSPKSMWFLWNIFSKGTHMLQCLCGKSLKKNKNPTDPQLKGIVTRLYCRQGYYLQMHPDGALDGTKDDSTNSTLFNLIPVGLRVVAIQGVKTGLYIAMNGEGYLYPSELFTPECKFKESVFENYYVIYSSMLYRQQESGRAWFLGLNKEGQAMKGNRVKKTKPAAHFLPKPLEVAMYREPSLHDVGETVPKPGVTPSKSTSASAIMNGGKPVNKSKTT
T1 sequence (Q9UQD0 1763-1976 limits assumed): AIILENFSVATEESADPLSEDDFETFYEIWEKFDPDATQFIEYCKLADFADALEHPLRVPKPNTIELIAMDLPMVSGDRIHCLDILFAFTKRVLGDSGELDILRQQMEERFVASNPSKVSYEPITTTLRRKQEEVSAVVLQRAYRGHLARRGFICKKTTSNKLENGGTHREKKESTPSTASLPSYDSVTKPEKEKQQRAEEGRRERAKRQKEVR

[2] = biological target: full-length P. pyralis luciferase (Photinus pyralis, UniProt P08659, K549A/L550V/N119G/N50D/S548I); format: cell-based
Sequence of full-length P. pyralis luciferase (P08659 whole entry N50D/N119G/S548I/K549A/L550V, looked up): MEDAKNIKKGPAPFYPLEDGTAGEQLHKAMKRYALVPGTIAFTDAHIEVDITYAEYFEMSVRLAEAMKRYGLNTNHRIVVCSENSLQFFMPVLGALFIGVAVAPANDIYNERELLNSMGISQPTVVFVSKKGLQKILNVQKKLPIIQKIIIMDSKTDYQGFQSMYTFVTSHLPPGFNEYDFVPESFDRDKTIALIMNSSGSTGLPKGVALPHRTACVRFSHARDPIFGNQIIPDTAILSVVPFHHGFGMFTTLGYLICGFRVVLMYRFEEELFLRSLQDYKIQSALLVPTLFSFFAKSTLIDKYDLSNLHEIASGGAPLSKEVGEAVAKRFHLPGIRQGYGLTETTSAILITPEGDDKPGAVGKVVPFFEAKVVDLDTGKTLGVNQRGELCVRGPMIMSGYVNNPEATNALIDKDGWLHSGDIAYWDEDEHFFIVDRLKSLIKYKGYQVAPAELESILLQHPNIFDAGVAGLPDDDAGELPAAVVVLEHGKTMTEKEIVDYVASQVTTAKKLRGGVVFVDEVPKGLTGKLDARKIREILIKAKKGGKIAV

[3] = CC_NCI screening, normalized to on-plate 0.3% DMSO controls
[4] = CC_NCI screening, LCA luminescence
[5] = CC_NCI screening, full-length luciferase counter-screen luminescence, normalized to on-plate 0.3% DMSO controls
[6] = CC_NCI screening, full-length luciferase counter-screen, normalized to on-plate 0.3% DMSO controls

Compound | Split Luciferase Assay % Lum Set 1 [1, 4] | Split Luciferase Assay %Lum Set 2 [1, 4] | Split Luciferase Assay Z-score Set 1 ([1]; CC_NCI screening, LCA) | Split Luciferase Assay Z-score Set 2 ([1]; CC_NCI screening, LCA) | Split Luciferase Assay %Lum Avg ([1]; CC_NCI screening) | Luciferase Assay % Lum [2, 5] | Luciferase Assay Z-score [2, 6] | Toxicity Assay % Fluor (Clone V cells; human, 16 h, 30 µM) | Toxicity Assay Z-score (Clone V cells; human, 16 h, 30 µM) | also measured
NC(=O)c1ncn([C@@H]2O[C@H](CO)[C@@H](O)[C@H]2O)c1N [AICAR] |  |  |  |  |  |  |  |  |  | Split Luciferase Assay Z-score Set 1 ([1]; CC_NCI screening): 0.03; Split Luciferase Assay % Lum Set 1 ([1]; CC_NCI screening): 100.34%; Split Luciferase Assay Z-score Set 2 ([1]; CC_NCI screening): 0.84; Split Luciferase Assay %Lum Set 2 ([1]; CC_NCI screening): 110.27%; Split Luciferase Assay %Lum Avg [1]: 105.31%; Luciferase Assay % Lum (full-length luciferase counter-screen) [2, 3]: 107.04%; Luciferase Assay Z-score (full-length luciferase counter-screen) [2, 3]: 0.90; Toxicity Assay % Fluor (CTB cell viability fluorescence) (Clone V cells): 108.29%; Toxicity Assay Z-score (CTB cell viability) (Clone V cells): 1.16
O=C1NC(=O)/C(=C/c2ccc(-c3ccc(F)cc3O)o2)S1 [AS 252424] |  |  |  |  |  |  |  |  |  | Split Luciferase Assay Z-score Set 1 ([1]; CC_NCI screening): -3.31; Split Luciferase Assay % Lum Set 1 ([1]; CC_NCI screening): 59.03%; Split Luciferase Assay Z-score Set 2 ([1]; CC_NCI screening): -4.84; Split Luciferase Assay %Lum Set 2 ([1]; CC_NCI screening): 40.57%; Split Luciferase Assay %Lum Avg [1]: 49.80%; Luciferase Assay % Lum (full-length luciferase counter-screen) [2, 3]: 69.90%; Luciferase Assay Z-score (full-length luciferase counter-screen) [2, 3]: -3.86; Toxicity Assay % Fluor (CTB cell viability fluorescence) (Clone V cells): 99.49%; Toxicity Assay Z-score (CTB cell viability) (Clone V cells): -0.07
O=C1NC(=O)/C(=C/c2ccc3c(c2)OCO3)S1 [AS-041164] |  |  |  |  |  |  |  |  |  | Split Luciferase Assay Z-score Set 1 ([1]; CC_NCI screening): -1.38; Split Luciferase Assay % Lum Set 1 ([1]; CC_NCI screening): 82.95%; Split Luciferase Assay Z-score Set 2 ([1]; CC_NCI screening): 0.50; Split Luciferase Assay %Lum Set 2 ([1]; CC_NCI screening): 106.11%; Split Luciferase Assay %Lum Avg [1]: 94.53%; Luciferase Assay % Lum (full-length luciferase counter-screen) [2, 3]: 84.77%; Luciferase Assay Z-score (full-length luciferase counter-screen) [2, 3]: -1.95; Toxicity Assay % Fluor (CTB cell viability fluorescence) (Clone V cells): 113.38%; Toxicity Assay Z-score (CTB cell viability) (Clone V cells): 1.87
O=C1NC(=O)/C(=C/c2ccc3c(c2)OC(F)(F)O3)S1 [AS-604850] |  |  |  |  |  |  |  |  |  | Split Luciferase Assay Z-score Set 1 ([1]; CC_NCI screening): -2.78; Split Luciferase Assay % Lum Set 1 ([1]; CC_NCI screening): 65.55%; Split Luciferase Assay Z-score Set 2 ([1]; CC_NCI screening): -1.96; Split Luciferase Assay %Lum Set 2 ([1]; CC_NCI screening): 75.94%; Split Luciferase Assay %Lum Avg [1]: 70.75%; Luciferase Assay % Lum (full-length luciferase counter-screen) [2, 3]: 62.77%; Luciferase Assay Z-score (full-length luciferase counter-screen) [2, 3]: -4.77; Toxicity Assay Z-score (CTB cell viability) (Clone V cells): 2.25
CCN(CCO)CCCOc1ccc2c(Nc3cc(CC(=O)Nc4cccc(F)c4)[nH]n3)ncnc2c1 [AZD1152-HQPA] | 87.29% | 100.91% | -1.03 | 0.07 | 94.10% | 84.20% | -2.02 | 93.28% | -0.94 | 
NCCCNCCSP(=O)(O)O [Amifostine] | 109.04% | 116.51% | 0.73 | 1.34 | 112.78% |  |  | 93.47% | -0.91 | Luciferase Assay % Lum [2]: 101.20%; Luciferase Assay Z-score [2]: 0.15
CC(C)(C#N)c1cc(Cn2cncn2)cc(C(C)(C)C#N)c1 [Anastrozole] | 89.47% | 99.87% | -0.85 | -0.01 | 94.67% | 100.06% | 0.01 | 95.38% | -0.65 | 
O=[As]O[As]=O (centres unmarked) [Arsenic trioxide] | 20.98% | 29.13% | -6.39 | -5.77 | 25.05% | 96.86% | -0.40 |  |  | Toxicity Assay % Fluor (Clone V cells): 84.44%; Toxicity Assay Z-score (Clone V cells): -2.18
CNC(=O)c1ccccc1Sc1ccc2c(/C=C/c3ccccn3)n[nH]c2c1 [Axitinib] | 32.94% | 31.21% | -5.42 | -5.60 | 32.07% | 24.49% | -9.67 |  |  | Toxicity Assay % Fluor (Clone V cells): 91.66%; Toxicity Assay Z-score (Clone V cells): -1.17
C=C(c1ccc(C(=O)O)cc1)c1cc2c(cc1C)C(C)(C)CCC2(C)C [BEXAROTENE] | 129.69% | 99.87% | 2.40 | -0.01 | 114.78% | 99.04% | -0.12 | 86.80% | -1.85 | 
Cn1c(=O)n(-c2ccc(C(C)(C)C#N)cc2)c2c3cc(-c4cnc5ccccc5c4)ccc3ncc21 [BEZ 235] | 91.64% | 100.91% | -0.68 | 0.07 | 96.28% | 98.68% | -0.17 | 90.66% | -1.31 | 
COC(=O)c1ccc2c(c1)NC(=O)/C2=C(\Nc1ccc(N(C)C(=O)CN2CCN(C)CC2)cc1)c1ccccc1 [BIBF-1120] | 119.91% | 123.80% | 1.61 | 1.94 | 121.85% | 102.06% | 0.26 | 89.46% | -1.47 | 
COc1ccc(Cl)cc1[C@]1(F)C(=O)Nc2cc(C(F)(F)F)ccc21 [BMS 204352] | 10.11% | 17.69% | -7.26 | -6.70 | 13.90% | 36.55% | -8.12 | 103.30% | 0.46 | 
Cc1cc(N2CCOCC2)cc2[nH]c(-c3c(NC[C@@H](O)c4cccc(Cl)c4)cc[nH]c3=O)nc12 [BMS-536924] | 56.86% | 40.57% | -3.49 | -4.84 | 48.71% | 93.73% | -0.80 |  |  | Toxicity Assay % Fluor (Clone V cells): 86.04%; Toxicity Assay Z-score (Clone V cells): -1.95
CC(C)C[C@H](NC(=O)[C@H](Cc1ccccc1)NC(=O)c1cnccn1)B(O)O [BORTEZOMIB] | 55.77% | 84.27% | -3.57 | -1.28 | 70.02% | 88.79% | -1.44 | 89.20% | -1.51 | 
NC(=O)c1ccc(I)c([N+](=O)[O-])c1 [BSI-201] | 102.51% | 112.35% | 0.20 | 1.01 | 107.43% | 101.73% | 0.22 | 93.94% | -0.85 | 
O=C(Nc1cccc(Nc2ncc(Br)c(NCCc3cnc[nH]3)n2)c1)N1CCCC1 [BX 912, reference compound] | 35.11% | 40.57% | -5.24 | -4.84 | 37.84% | 85.82% | -1.82 |  |  | Z-score (LCA primary screening) ([1]; 30 µM, 384-well, average of primary screening (n = 2), vs on-plate 0.3% DMSO): −5.04; dose-response behavior of repurchased compounds ([1]; 10-point dose response 0.25-50 µM, Clone V cells): counter acting activity as a function of dosage; also recorded: act as enhancers at lower concentrations; IMin (% Luminescence) ([1]; antagonists, Clone V cells, 384-well, normalized to DMSO): 37.84 % Luminescence; action toward the FGF14:Nav1.6 C-tail interaction ([1]; dose-dependency validation using fresh compound samples): acted as antagonists; IC50 ([1]; estimated, 8-point dose response 0.25-30 µM, n = 4 per concentration, library compounds, read-out: IC50): 9.23 µM; IC50 ([1]; repurchased compounds, 10-point dose response 0.25-50 µM, n = 8 per concentration, Clone V cells, 384-well, read-out: in-cell IC50): 6.8 µM; Toxicity Assay % Fluor (Clone V cells): 106.22%; Toxicity Assay Z-score (Clone V cells): 0.87
Cl.Cn1c(CCCC(=O)O)nc2cc(N(CCCl)CCCl)ccc21 [Bendamustine hydrochloride] | 111.21% | 127.96% | 0.91 | 2.27 | 119.58% | 101.61% | 0.21 |  |  | Toxicity Assay % Fluor (Clone V cells): 87.62%; Toxicity Assay Z-score (Clone V cells): -1.73
